Measurements as given in patent US8361487B1, “Ant controllers and method for application thereof” (BASF Aktiengesellschaft, priority 1999, dated 2013).

System: Coptotermes formosanus Shiraki
Assay: Test Example 1: termite-killing test on treated filter paper
Format: in vivo
Details: mortality class; 1 ml of a 500 ppm solution on filter paper, seven days after inoculation, triplicate group of 10 insects
Procedure: A filter paper was spread in a glass dish having a diameter of 9 cm, onto which was dropped 1 ml of a 500 ppm solution of the ant controller of the present invention. Then, the filter paper was inoculated with Coptotermes formosanus Shiraki. Seven days after the inoculation, percentage of dead insects was investigated, from which mortality was calculated. The test was carried out with triplicate group of 10 insects.

Structure (SMILES)	Termite-killing effect
CC(C(=NNC(=O)Nc1ccc(OC(F)(F)F)cc1)c1ccccc1)c1ccccc1 (stereo not drawn) [Compound 51]	A (100)
CC(C(=NNC(=O)Nc1ccc(OC(F)(F)F)cc1)c1ccccc1)c1ccccc1 (stereo not drawn) [Compound 52]	A (100)
CC(C(=NNC(=O)Nc1ccc(Cl)cc1)c1ccccc1)c1ccc(Cl)cc1 (stereo not drawn) [Compound 53]	B (99-90)
CC(C(=NNC(=O)Nc1ccc(OC(F)(F)F)cc1)c1ccccc1)c1ccc(Cl)cc1 (stereo not drawn) [Compound 54]	A (100)
CC(C(=NNC(=O)Nc1ccc(Cl)cc1)c1cccc(Cl)c1)c1ccc(C#N)cc1 (stereo not drawn) [Compound 55]	A (100)
CC(C(=NNC(=O)Nc1ccc(OC(F)(F)F)cc1)c1cccc(Cl)c1)c1ccc(C#N)cc1 (stereo not drawn) [Compound 56]	A (100)
O=C(NN=C(c1ccccc1)C(O)c1ccccc1)Nc1ccc(Cl)cc1 (stereo not drawn) [Compound 57]	D (79-50)
O=C(NN=C(c1ccccc1)C(O)c1ccccc1)Nc1ccc(OC(F)(F)F)cc1 (stereo not drawn) [Compound 58]	A (100)
O=C(NN=C(c1ccccc1)C(O)c1ccc(Cl)cc1)Nc1ccc(Cl)cc1 (stereo not drawn) [Compound 59]	C (89-80)
O=C(NN=C(c1ccccc1)C(O)c1ccc(Cl)cc1)Nc1ccc(OC(F)(F)F)cc1 (stereo not drawn) [Compound 60]	C (89-80)
N#Cc1ccc(CC(=NNC(=O)Nc2ccc([S+]([O-])C(F)(F)F)cc2)c2cccc(F)c2)cc1 (stereo not drawn) [Compound 77]	A (100)
N#Cc1ccc(CC(=NNC(=O)Nc2ccc(S(=O)(=O)C(F)(F)F)cc2)c2ccc(F)cc2)cc1 [Compound 78]	A (100)
N#Cc1ccc(CC(=NNC(=O)Nc2ccc([S+]([O-])C(F)(F)F)cc2)c2cccc(Cl)c2)cc1 (stereo not drawn) [Compound 79]	B (99-90)
N#Cc1ccc(CC(=NNC(=O)Nc2ccc(SC(F)(F)F)cc2)c2cccc(C(F)(F)F)c2)cc1 [Compound 80]	A (100)
N#Cc1ccc(CC(=NNC(=O)Nc2ccc([S+]([O-])C(F)(F)F)cc2)c2cccc(C(F)(F)F)c2)cc1 (stereo not drawn) [Compound 81]	A (100)
N#Cc1ccc(CC(=NNC(=O)Nc2ccc(OC(F)(F)F)cc2)c2cccc(C(F)(F)F)c2)cc1 [Compound 82]	B (99-90)
N#Cc1ccc(CC(=NNC(=O)Nc2ccc(Cl)cc2)c2cccc(C(F)(F)F)c2)cc1 [Compound 83]	D (79-50)
N#Cc1ccc(CC(NNC(=O)Nc2ccc(OC(F)(F)F)cc2)c2cccc(Cl)c2)cc1 (stereo not drawn) [Compound 91]	A (100)
N#Cc1ccc(CC(NNC(=O)Nc2ccc(SC(F)(F)F)cc2)c2cccc(Cl)c2)cc1 (stereo not drawn) [Compound 92]	A (100)
N#Cc1ccc(CC(NNC(=O)Nc2ccc([S+]([O-])C(F)(F)F)cc2)c2cccc(Cl)c2)cc1 (stereo not drawn) [Compound 93]	D (79-50)
N#Cc1ccc(CC(NNC(=O)Nc2ccc(S(=O)(=O)C(F)(F)F)cc2)c2cccc(Cl)c2)cc1 (stereo not drawn) [Compound 94]	A (100)
N#Cc1ccc(CC(NNC(=O)Nc2ccc(OC(F)(F)F)cc2)c2cccc(Br)c2)cc1 (stereo not drawn) [Compound 95]	A (100)
N#Cc1ccc(CC(NNC(=O)Nc2ccc(SC(F)(F)F)cc2)c2cccc(C(F)(F)F)c2)cc1 (stereo not drawn) [Compound 97]	A (100)

Structure (SMILES)	Termite-killing effect
FC(F)(F)Oc1ccc(NC(=S)NNC(Cc2ccc(Cl)cc2)c2ccccc2)cc1 (stereo not drawn) [Compound 98]	A (100)
N#Cc1ccc(CC(NNC(=S)Nc2ccc(OC(F)(F)F)cc2)c2cccc(Cl)c2)cc1 (stereo not drawn) [Compound 99]	A (100)
N#Cc1ccc(CC(NNC(=S)Nc2ccc(OC(F)(F)F)cc2)c2cccc(C(F)(F)F)c2)cc1 (stereo not drawn) [Compound 100]	A (100)
CC(=O)N(NC(=O)Nc1ccc(OC(F)(F)F)cc1)C(Cc1ccc(C#N)cc1)c1cccc(Cl)c1 (stereo not drawn) [Compound 101]	A (100)
N#Cc1ccc(CC(c2cccc(Cl)c2)N(NC(=O)Nc2ccc(OC(F)(F)F)cc2)C(=O)c2ccccc2)cc1 (stereo not drawn) [Compound 102]	A (100)
CCNC(=O)N(NC(=O)Nc1ccc(OC(F)(F)F)cc1)C(Cc1ccc(C#N)cc1)c1cccc(Cl)c1 (stereo not drawn) [Compound 103]	A (100)
O=C(NNC(Cc1ccc(F)cc1)c1ccccc1)Nc1ccc(OC(F)(F)F)cc1 (stereo not drawn) [Compound 109]	C (89-80)
O=C(NNC(Cc1ccc(Br)cc1)c1ccccc1)Nc1ccc(Cl)cc1 (stereo not drawn) [Compound 110]	B (99-90)
O=C(NNC(Cc1ccc(Br)cc1)c1ccccc1)Nc1ccc(OC(F)(F)F)cc1 (stereo not drawn) [Compound 111]	D (79-50)
N#Cc1cccc(CC(NNC(=O)Nc2ccc(OC(F)(F)F)cc2)c2ccccc2)c1 (stereo not drawn) [Compound 112]	A (100)
O=C(NNC(Cc1ccccc1[N+](=O)[O-])c1ccccc1)Nc1ccc(OC(F)(F)F)cc1 (stereo not drawn) [Compound 113]	A (100)
N#Cc1ccc(CC(NNC(=O)Nc2ccc(OC(F)(F)F)cc2)c2cccc(F)c2)cc1 (stereo not drawn) [Compound 114]	B (99-90)
N#Cc1ccc(CC(NNC(=O)Nc2ccc(SC(F)(F)F)cc2)c2cccc(F)c2)cc1 (stereo not drawn) [Compound 115]	A (100)
N#Cc1ccc(CC(NNC(=O)Nc2ccc([S+]([O-])C(F)(F)F)cc2)c2cccc(F)c2)cc1 (stereo not drawn) [Compound 116]	B (99-90)
N#Cc1ccc(CC(NNC(=O)Nc2ccc([S+]([O-])C(F)(F)F)cc2)c2cccc(C(F)(F)F)c2)cc1 (stereo not drawn) [Compound 119]	A (100)
N#Cc1ccc(CC(NNC(=O)Nc2ccc(S(=O)(=O)C(F)(F)F)cc2)c2cccc(C(F)(F)F)c2)cc1 (stereo not drawn) [Compound 120]	A (100)
N#Cc1cccc(CC(NNC(=O)Nc2ccc(OC(F)(F)F)cc2)c2ccccc2)c1 (stereo not drawn) [Compound 121]	C (89-80)
O=C(C=NN(Cc1ccccc1)c1ccccc1)Nc1ccc(OC(F)(F)F)cc1 [Compound 122]	D (79-50)
O=C(C=NN(Cc1ccc(Cl)cc1)c1ccccc1)Nc1ccc(OC(F)(F)F)cc1 [Compound 123]	A (100)
N#Cc1ccc(CN(N=CC(=O)Nc2ccc(Cl)cc2)c2ccccc2)cc1 [Compound 124]	D (79-50)
N#Cc1ccc(CN(N=CC(=O)Nc2ccc(OC(F)(F)F)cc2)c2ccccc2)cc1 [Compound 125]	A (100)
O=C(C=NN(Cc1ccc(Cl)cc1)c1cccc(Cl)c1)Nc1ccc(Cl)cc1 [Compound 126]	A (100)
O=C(C=NN(Cc1ccc(Cl)cc1)c1cccc(Cl)c1)Nc1ccc(OC(F)(F)F)cc1 [Compound 127]	A (100)

Structure (SMILES)	Termite-killing effect
O=C(C=NN(Cc1ccc([N+](=O)[O-])cc1)c1cccc(Cl)c1)Nc1ccc(Cl)cc1 [Compound 128]	A (100)
O=C(C=NN(Cc1ccc([N+](=O)[O-])cc1)c1cccc(Cl)c1)Nc1ccc(OC(F)(F)F)cc1 [Compound 129]	A (100)
N#Cc1ccc(CN(N=CC(=O)Nc2ccc(Cl)cc2)c2cccc(Cl)c2)cc1 [Compound 130]	C (89-80)
N#Cc1ccc(CN(N=CC(=O)Nc2ccc(OC(F)(F)F)cc2)c2cccc(Cl)c2)cc1 [Compound 131]	C (89-80)
N#Cc1ccc(CN(N=CC(=O)Nc2ccc(SC(F)(F)F)cc2)c2cccc(Cl)c2)cc1 [Compound 132]	A (100)
N#Cc1ccc(CN(N=CC(=O)Nc2ccc([S+]([O-])C(F)(F)F)cc2)c2cccc(Cl)c2)cc1 (stereo not drawn) [Compound 133]	A (100)
N#Cc1ccc(CN(N=CC(=O)Nc2ccc(Cl)cc2)c2cccc(F)c2)cc1 [Compound 134]	A (100)
N#Cc1ccc(CN(N=CC(=O)Nc2ccc(OC(F)(F)F)cc2)c2cccc(F)c2)cc1 [Compound 135]	B (99-90)
Cc1cccc(N(Cc2ccc(C#N)cc2)N=CC(=O)Nc2ccc(Cl)cc2)c1 [Compound 136]	A (100)
Cc1cccc(N(Cc2ccc(C#N)cc2)N=CC(=O)Nc2ccc(OC(F)(F)F)cc2)c1 [Compound 137]	A (100)
N#Cc1ccc(CN(N=CC(=O)Nc2ccc(Cl)cc2)c2cccc(C(F)(F)F)c2)cc1 [Compound 138]	A (100)
N#Cc1ccc(CN(N=CC(=O)Nc2ccc(OC(F)(F)F)cc2)c2cccc(C(F)(F)F)c2)cc1 [Compound 139]	A (100)
CC(=NN(Cc1ccc(C#N)cc1)c1cccc(Cl)c1)C(=O)Nc1ccc(OC(F)(F)F)cc1 [Compound 140]	A (100)
CN(C(=O)C=NN(Cc1ccc(C#N)cc1)c1cccc(C(F)(F)F)c1)c1ccc(Cl)cc1 [Compound 141]	D (79-50)
N#Cc1ccccc1CN(N=CC(=O)Nc1ccc(OC(F)(F)F)cc1)c1cccc(Cl)c1 [Compound 142]	C (89-80)
O=C(CNN(Cc1ccccc1)c1ccccc1)Nc1ccc(OC(F)(F)F)cc1 [Compound 143]	C (89-80)
O=C(CNN(Cc1ccc(Cl)cc1)c1ccccc1)Nc1ccc(OC(F)(F)F)cc1 [Compound 144]	B (99-90)
N#Cc1ccc(CN(NCC(=O)Nc2ccc(Cl)cc2)c2ccccc2)cc1 [Compound 145]	A (100)
N#Cc1ccc(CN(NCC(=O)Nc2ccc(OC(F)(F)F)cc2)c2ccccc2)cc1 [Compound 146]	D (79-50)
O=C(CNN(Cc1ccc(Cl)cc1)c1cccc(Cl)c1)Nc1ccc(Cl)cc1 [Compound 147]	A (100)
O=C(CNN(Cc1ccc(Cl)cc1)c1cccc(Cl)c1)Nc1ccc(OC(F)(F)F)cc1 [Compound 148]	A (100)
O=C(CNN(Cc1ccc([N+](=O)[O-])cc1)c1cccc(Cl)c1)Nc1ccc(Cl)cc1 [Compound 149]	A (100)
O=C(CNN(Cc1ccc([N+](=O)[O-])cc1)c1cccc(Cl)c1)Nc1ccc(OC(F)(F)F)cc1 [Compound 150]	C (89-80)
